From patent publication US9827326B2, “Polymer-sunitinib conjugates” (Nektar Therapeutics, priority 2010, dated 2017) come the findings set out here.

Where two headings read alike, the source gives them in different places.

This data set can be described thus: In vitro release of conjugates in phosphate buffer (Method E). It is filed as physicochemical. How it is done: In vitro release for conjugates in buffer: In separate containers Compound 2a (˜0.1-0.5 mg/mL), Compound 3a (˜0.5-5 mg/mL) and Compound 4a (˜0.2-1 mg/mL) were dissolved in 100 mM phosphate buffer pH 7.5 (or other pH values as indicated). The conjugates were filtered through a 0.2 micron filter into a HPLC vial. The HPLC sample vials were incubated at 37° C. and injected at various intervals on a HPLC system with C18 silica column applying an acetonitrile gradient with 0.1% TFA; retention times observed were sunitinib ˜3.5 minutes and conjugates either ˜2.2 minutes for Compound 2a or ˜10.8 minutes for Compounds 3a or 4a. Release data for the t1/2 values were obtained from the slope of the linear fit to a plot of ln(A(conjugate)/A0(conjugate)) vs. time, according to the first order rate law.
The half-lives observed for several sunitinib conjugates of the invention were determined in buffer and plasma according to the descriptions in “Method E” provided in the Experimental.

As usually defined, the half-life is the time needed for the level to fall by half in the phase considered. `CCN(CC)CCN(C(=O)OCC(O)CO)C(=O)c1c(C)[nH]c(/C=C2\C(=O)Nc3ccc(F)cc32)c1C` (centres unmarked) [Compound 1e, (Z)-2,3-dihydroxypropyl 2-(diethylamino)ethyl(5-((5-fluoro-2-oxoindolin-3-ylidene)methyl)-2,4-dimethyl-1H-pyrrole-3-carbonyl)carbamate]: the half-life (100 mM phosphate buffer pH 7.5, 37° C., read-out: Release half-life, Phosphate pH 7.5) is about 3 min and the half-life (phosphate buffer pH 6.8, 37° C., read-out: Release half-life, Phosphate pH 6.8) was about 10 min.
